ChEMBL document CHEMBL1126154, “Pyrrole mannich bases as potential antipsychotic agents” (J Med Chem, 1992)
pKi: −log10 of the molar value.

Assays:
D(2) dopamine receptor = D(2) dopamine receptor (Rattus norvegicus, UniProt P61169); test: The compound was tested for its binding affinity towards Dopamine receptor D2 by displacing [3H]spiperone radioligand in rat striatum
[1] = molecular target: T1, Adrenergic receptor alpha-1 (Rattus norvegicus, UniProt P15823+P23944+P43140); test: The compound was tested for its binding affinity towards Alpha-1 adrenergic receptor by displacing [3H]WB-4101 radioligand in rat cerebral cortex; format: tissue-based
T1 sequence (P15823 whole entry): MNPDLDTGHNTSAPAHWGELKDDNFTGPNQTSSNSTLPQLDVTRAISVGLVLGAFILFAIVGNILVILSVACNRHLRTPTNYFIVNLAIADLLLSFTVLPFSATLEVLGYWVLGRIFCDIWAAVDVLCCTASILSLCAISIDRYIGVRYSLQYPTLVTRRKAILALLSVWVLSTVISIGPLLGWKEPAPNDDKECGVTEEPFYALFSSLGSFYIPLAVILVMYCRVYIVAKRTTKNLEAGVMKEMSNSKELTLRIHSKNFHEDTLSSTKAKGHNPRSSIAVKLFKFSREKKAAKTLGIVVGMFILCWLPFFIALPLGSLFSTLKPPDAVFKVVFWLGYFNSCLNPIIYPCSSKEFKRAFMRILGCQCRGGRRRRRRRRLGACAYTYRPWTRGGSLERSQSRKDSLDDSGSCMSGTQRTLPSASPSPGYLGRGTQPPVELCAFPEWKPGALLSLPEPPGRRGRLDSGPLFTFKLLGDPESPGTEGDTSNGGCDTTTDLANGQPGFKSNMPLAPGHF
T1 sequence (P23944 whole entry): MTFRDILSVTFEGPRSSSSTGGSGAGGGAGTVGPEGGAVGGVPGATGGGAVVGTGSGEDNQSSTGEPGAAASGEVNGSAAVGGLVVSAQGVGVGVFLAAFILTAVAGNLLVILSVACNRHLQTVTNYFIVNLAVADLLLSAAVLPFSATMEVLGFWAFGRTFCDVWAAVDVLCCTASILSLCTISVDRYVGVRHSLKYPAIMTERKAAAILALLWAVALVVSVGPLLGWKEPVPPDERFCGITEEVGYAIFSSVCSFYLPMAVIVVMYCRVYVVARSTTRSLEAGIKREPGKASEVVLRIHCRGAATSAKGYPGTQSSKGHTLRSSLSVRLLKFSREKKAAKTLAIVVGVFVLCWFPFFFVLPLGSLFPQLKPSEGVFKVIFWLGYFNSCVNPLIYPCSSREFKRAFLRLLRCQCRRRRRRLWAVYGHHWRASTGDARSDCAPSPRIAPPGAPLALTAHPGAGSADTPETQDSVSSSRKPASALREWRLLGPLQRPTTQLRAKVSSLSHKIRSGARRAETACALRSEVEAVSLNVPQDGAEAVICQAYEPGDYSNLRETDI
T1 sequence (P43140 whole entry): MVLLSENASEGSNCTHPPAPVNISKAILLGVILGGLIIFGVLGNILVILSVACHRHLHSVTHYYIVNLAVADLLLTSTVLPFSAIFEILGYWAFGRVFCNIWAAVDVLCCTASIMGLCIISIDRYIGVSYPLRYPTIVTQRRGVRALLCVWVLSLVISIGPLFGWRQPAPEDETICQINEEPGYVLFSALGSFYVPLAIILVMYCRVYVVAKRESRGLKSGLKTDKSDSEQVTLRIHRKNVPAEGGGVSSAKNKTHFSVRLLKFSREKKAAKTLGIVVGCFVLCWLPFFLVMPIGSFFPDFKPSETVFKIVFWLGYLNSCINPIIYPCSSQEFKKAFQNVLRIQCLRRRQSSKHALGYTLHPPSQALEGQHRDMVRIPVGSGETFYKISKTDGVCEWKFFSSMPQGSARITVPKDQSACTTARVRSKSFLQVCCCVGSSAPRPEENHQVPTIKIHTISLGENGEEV

Rattus norvegicus [2] = test: Antipsychotic activity at a dose 10 times the ED50 value for CAR block for production of catalepsy in the rat (following i.p. dosing); format: functional; details: ip
Rattus norvegicus [3] = test: The compound was measured at a dose 10 times the ED50 value for CAR block for production of catalepsy in the rat via oral administration.; format: functional
Rattus norvegicus [4] = test: The percentage production of catalepsy in rat at a dose of 20 mg/kg ip.; format: functional
[5] = molecular target: Serotonin 1 (5-HT1) receptor (Rattus norvegicus, UniProt P28564+P30940+P19327+P28565); test: The compound was tested for its binding affinity towards 5-hydroxytryptamine 1 receptor by displacing [3H]5-HT radioligand in rat cerebral cortex; format: tissue-based
[6] = molecular target: Serotonin 2 (5-HT2) receptor (Rattus norvegicus, UniProt P30994+P08909+P14842); test: The compound was tested for its binding affinity towards 5-hydroxytryptamine 2 receptor by displacing [3H]ketanserin radioligand in rat cerebral cortex; format: tissue-based
Rattus norvegicus [7] = test: The percentage production of catalepsy in rat at a dose of 100 mg/kg ip.; format: functional
Rattus norvegicus [8] = test: The percentage production of catalepsy in rat at a dose of 70 mg/kg ip.; format: functional
Rattus norvegicus [9] = species on record: Rattus norvegicus; test: ED50 value for catalepsy indicates the dose required to produce a 50% of maximum catalepsy score.; format: functional
Rattus norvegicus [10] = test: The percentage production of catalepsy in rat at a dose of 57 mg/kg ip.; format: functional
Rattus norvegicus [11] = test: The percentage production of catalepsy in rat at a dose of 90 mg/kg ip.; format: functional
[12] = molecular target: 5-hydroxytryptamine receptor 1B (Rattus norvegicus, UniProt P28564); test: The compound was tested for its binding affinity towards 5-hydroxytryptamine 1B receptor by displacing [3H]serotonin radioligand in rat cerebral cortex; format: tissue-based
Rattus norvegicus [13] = test: The percentage production of catalepsy in rat at a dose of 50 mg/kg ip.; format: functional
Rattus norvegicus [14] = test: The percentage production of catalepsy in rat at a dose of 37 mg/kg ip.; format: functional
[15] = molecular target: T2, 5-hydroxytryptamine receptor 1A (Rattus norvegicus, UniProt P19327); test: Binding affinity towards 5-hydroxytryptamine 1A receptor by displacing [3H]WB-4101 from rat hippocampus; format: tissue-based
T2 sequence (P19327 whole entry): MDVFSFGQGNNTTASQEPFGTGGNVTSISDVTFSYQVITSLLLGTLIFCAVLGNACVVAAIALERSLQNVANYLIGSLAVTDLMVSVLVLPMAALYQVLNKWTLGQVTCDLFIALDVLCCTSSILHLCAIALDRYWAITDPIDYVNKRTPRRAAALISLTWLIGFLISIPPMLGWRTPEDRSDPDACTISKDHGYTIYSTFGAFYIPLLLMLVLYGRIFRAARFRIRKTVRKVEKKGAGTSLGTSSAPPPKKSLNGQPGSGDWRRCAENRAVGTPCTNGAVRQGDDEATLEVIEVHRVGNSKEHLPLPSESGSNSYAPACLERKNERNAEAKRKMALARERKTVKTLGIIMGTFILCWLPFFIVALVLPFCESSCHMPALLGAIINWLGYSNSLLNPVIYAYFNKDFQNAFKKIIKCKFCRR

Rattus norvegicus [16] = species on record: Rattus norvegicus; test: ED50 value for catalepsy indicates the dose required to produce a 50% of maximum catalepsy score. parentheses; format: functional
Rattus norvegicus [17] = test: The percentage production of catalepsy in rat at a dose of 27 mg/kg ip.; format: functional
Rattus norvegicus [18] = test: The percentage production of catalepsy in rat at a dose of 54 mg/kg ip.; format: functional
[19] = Rattus norvegicus, po, read-out: ED50

Chain of 5-hydroxytryptamine receptor 1B (P28564 whole entry): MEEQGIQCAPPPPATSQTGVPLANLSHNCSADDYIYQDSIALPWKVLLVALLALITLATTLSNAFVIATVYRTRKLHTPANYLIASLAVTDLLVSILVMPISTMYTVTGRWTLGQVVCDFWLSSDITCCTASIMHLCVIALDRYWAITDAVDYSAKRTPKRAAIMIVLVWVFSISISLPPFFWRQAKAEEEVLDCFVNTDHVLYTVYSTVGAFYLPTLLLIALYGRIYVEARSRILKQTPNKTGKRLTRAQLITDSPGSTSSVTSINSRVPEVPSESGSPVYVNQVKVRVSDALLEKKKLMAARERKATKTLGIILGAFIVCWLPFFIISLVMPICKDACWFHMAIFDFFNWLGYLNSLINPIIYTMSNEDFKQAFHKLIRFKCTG
Chain of D(2) dopamine receptor (P61169 whole entry): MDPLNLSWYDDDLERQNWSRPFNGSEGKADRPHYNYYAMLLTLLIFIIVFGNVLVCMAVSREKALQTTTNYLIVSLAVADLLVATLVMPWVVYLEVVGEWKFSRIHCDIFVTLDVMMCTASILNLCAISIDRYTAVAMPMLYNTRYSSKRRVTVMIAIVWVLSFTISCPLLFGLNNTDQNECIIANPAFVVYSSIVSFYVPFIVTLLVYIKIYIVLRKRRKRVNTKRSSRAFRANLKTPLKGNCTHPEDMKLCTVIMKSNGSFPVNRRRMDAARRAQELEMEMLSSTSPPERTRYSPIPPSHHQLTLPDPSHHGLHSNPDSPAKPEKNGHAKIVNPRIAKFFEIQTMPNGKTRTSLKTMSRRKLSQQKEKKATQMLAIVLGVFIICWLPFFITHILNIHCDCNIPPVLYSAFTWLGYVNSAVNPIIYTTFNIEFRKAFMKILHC

In the case of `Cc1nc2sccn2c(=O)c1CCN1CCC(=C(c2ccc(F)cc2)c2ccc(F)cc2)CC1` [RITANSERIN], the pKi (D(2) dopamine receptor) was 7.27, the Ki [1] was 49.5 nM and the ED50 (Rattus norvegicus [2]) was greater than 3 mg/kg.

Work on `CCOc1ccccc1N1CCN(Cc2ccc(CN3CCCC3=O)n2C)CC1` yielded a Ki [1] of 27.5 nM, an ED50 (Rattus norvegicus [3]; [19]) of 32 mg/kg and a % catalepsy at 20 mg/kg (Rattus norvegicus [4]) of 97%. It also gave a Ki [5] of 76 nM, an ED50 (Rattus norvegicus [2]) of 1.8 mg/kg and a Ki [6] of 455 nM.

Work on `CC(C)c1ccccc1N1CCN(Cc2ccc(CN3CCCCCC3=O)n2C)CC1` yielded a Ki [1] of 53.9 nM, an ED50 (Rattus norvegicus [3]; [19]) greater than 30 mg/kg and a Ki [5] of 82.1 nM. The % catalepsy at 100 mg/kg (Rattus norvegicus [7]) was 17%, the ED50 (Rattus norvegicus [2]) was 10 mg/kg and the Ki [6] was 110 nM.

Molecule `CN1CCN(C2=Nc3cc(Cl)ccc3Nc3ccccc32)CC1` [CLOZAPINE] has an ED50 (Rattus norvegicus [3]; [19]) of 32.5 mg/kg, a % catalepsy at 70 mg/kg (Rattus norvegicus [8]) of 10% and an ED50 (Rattus norvegicus [9]) greater than 70 mg/kg.

`CC(C)Oc1ccccc1N1CCN(Cc2ccc(CN3CCCCCC3=O)n2C)CC1` gave a % catalepsy at 57 mg/kg (Rattus norvegicus [10]) of 26%, a Ki [1] of 16.3 nM and an ED50 (Rattus norvegicus [3]; [19]) of 18.9 mg/kg. For the same molecule, the Ki [5] was 68.8 nM, the ED50 (Rattus norvegicus [2]) was 5.7 mg/kg and the Ki [6] was 1000 nM.

`CC(C)c1ccccc1N1CCN(Cc2ccc(CN3CCCCC3=O)n2C)CC1` was tested, and the % catalepsy at 90 mg/kg (Rattus norvegicus [11]) was 19%, the ED50 (Rattus norvegicus [3]; [19]) was greater than 30 mg/kg and the Ki [5] was 41.3 nM. The ED50 (Rattus norvegicus [2]) was 8.9 mg/kg and the Ki [6] was 137 nM.

Work on `Cn1c(CN2CCN(c3cccc(Cl)c3)CC2)ccc1CN1CCCCC1=O` yielded a pKi [12] of 7.02, an ED50 (Rattus norvegicus [2]) of 10.4 mg/kg and a % catalepsy at 50 mg/kg (Rattus norvegicus [13]) of 28%.

Molecule `CCC(C)Oc1ccccc1N1CCN(Cc2ccc(CN3CCCCC3=O)n2C)CC1` (configuration not stated) has a pKi [12] of 7.35, a Ki [1] of 17.4 nM and a Ki [5] of 29.3 nM. It also gave an ED50 (Rattus norvegicus [2]) of 3.7 mg/kg, a Ki [6] of 267 nM and a % catalepsy at 37 mg/kg (Rattus norvegicus [14]) of 17%. It also gave a pKi [15] of 8.74.

`COc1ccccc1N1CCNCC1` gave a Ki [5] of 28 nM, an ED50 (Rattus norvegicus [2]) of 5.6 mg/kg and a Ki [6] greater than 100 nM. For the same molecule, the ED50 (Rattus norvegicus [16]) was greater than 45 mg/kg.

`CC(C)Oc1ccccc1N1CCN(Cc2ccc(CN3CCCC3=O)n2C)CC1` showed a Ki [1] of 7.3 nM, an ED50 (Rattus norvegicus [3]; [19]) greater than 20 mg/kg and a Ki [5] of 120 nM. For the same molecule, the ED50 (Rattus norvegicus [2]) was 2.2 mg/kg, the Ki [6] was 386 nM and the % catalepsy at 27 mg/kg (Rattus norvegicus [17]) was 52%.

In the case of `CC(C)Oc1ccccc1N1CCN(Cc2ccc(CN3CCCCC3=O)n2C)CC1` [RWJ-25730], the % catalepsy at 54 mg/kg (Rattus norvegicus [18]) was 12.1%, the ED50 (Rattus norvegicus [3]) was 10.4 mg/kg and the Ki [6] was 1006 nM.
